# Ends that are not written are not given here.
# Assays:
# [1] = test system: HeLa cells; format: cell-based; settings: 24 h, alamarBlue
# Method: Peptide cytotoxicity. In vitro cytotoxicity was measured using the 3D EpiDerm skin tissues and HeLa Cells using a fluorescent reporter of cell viability, alamarBlue (ThermoFisher Scientific). 3D EpiDerm skin tissues (MatTek EPI-200-AFAB) were transferred to a 12 well plate containing 600 μL of AFAB-assay medium supplemented with 10% v/v alamarBlue. […] HeLa cells were seeded in a 96-well plate (2×10^4 cells/per well) and incubated overnight at 37° C. and 5% CO2 in a humidified incubator to prepare wells at ˜50% confluency of adherent cells. After the incubation, spent DMEM was removed and cells were washed with PBS. alamarBlue-containing medium was prepared by mixing Phenol Red-free DMEM with alamarBlue solution at a 9:1 ratio and a 180 μl volume was added to each well. Cells were treated with peptides varying from 3.25 to 200 μg/mL and then incubated for 24 h. The fluorescence intensities of treated cultures were normalized to values measured for an untreated control group. After the 24 h incubation period, alamarBlue fluorescence was measured at 590 nm upon excitation at 560 nm using Varioskan Lux plate reader (Thermo Scientific) plate reader.
# [2] = test system: Kodamae ohmeri AR 396; experiment: MIC, YPD broth, CDC and FDA AR Candida isolate panel; format: cell-based; settings: Table 9 top part: titrations from 1.56 to 100 μg/mL
# How it was run: (§1)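 Cells are diluted to optical density […] and exposed to a 2-fold peptide series. Cultures then incubate overnight at 37° C without agitation.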
# [3] = test system: Candida lusitaniae AR 398; experiment: as above; format: cell-based; settings: Table 9 top part: titrations from 1.56 to 100 μg/mL
# How it was run: as §1
# [4] = test system: Saccharomyces cerevisiae AR 399; experiment: as above; format: cell-based; settings: Table 9 top part: titrations from 1.56 to 100 μg/mL
# How it was run: as §1
# [5] = test system: Candida duobushaemulonii AR 392; experiment: as above; format: cell-based; settings: Table 9 top part: titrations from 1.56 to 100 μg/mL
# How it was run: as §1
# [6] = test system: Candida krusei AR 397; experiment: as above; format: cell-based; settings: Table 9 top part: titrations from 1.56 to 100 μg/mL
# How it was run: as §1
# [7] = test system: Candida haemulonii AR 393; experiment: as above; format: cell-based; settings: Table 9 top part: titrations from 1.56 to 100 μg/mL
# How it was run: as §1
# [8] = test system: Candida duobushaemulonii AR 394; experiment: as above; format: cell-based; settings: Table 9 top part: titrations from 1.56 to 100 μg/mL
# How it was run: as §1
# [9] = test system: Candida duobushaemulonii AR 391; experiment: as above; format: cell-based; settings: Table 9 top part: titrations from 1.56 to 100 μg/mL
# How it was run: as §1
# [10] = test system: Saccharomyces cerevisiae AR 400; experiment: as above; format: cell-based; settings: Table 9 top part: titrations from 1.56 to 100 μg/mL
# How it was run: as §1
# [11] = test system: Klebsiella pneumoniae; experiment: SYTOX Green membrane integrity assay; format: cell-based; settings: 25 μg/mL; resistant strain
# [12] = test system: MRSA ATCC 33592; experiment: Three-dimensional NHEK skin model of MRSA infection and treatment; format: cell-based, Staphylococcus aureus
# Method: To begin to assess the potential utility of STIP3-29 as a topical antimicrobial agent, the ability of the peptide to control MRSA infections of three-dimensional epidermal skin model prepared from normal, human-derived epidermal keratinocytes (NHEK) in vitro was evaluated. The multilayered and highly differentiated tissue was colonized with MRSA 33952 through a 4 h exposure to 5×10^5 CFU before removing non-adherent cells. It was observed that ˜7×10^3 CFU (−1%) of the MRSA cells colonized the tissues, and that the population expanded by 4-log units in a 16 h period (FIG. 6A). […] Amidation of the C-terminus is correlated with an increase in red blood cell lysis, observed by comparing of STIP3-1 to STIP3-28 and STIP3-3 to STIP3-29 whereas the inclusion of D-amino acids reduced the hemolytic activity.
# Three-dimensional tissue infection and treatment. 3D EpiDerm skin tissues (MatTek EPI-200-AFAB; antifungal & antibiotic-free; 9 mm) contained within a plastic insert lined with a permeable 0.4 μm membrane were transferred to a 12 well plate containing dye- and antibiotic assay medium (600 μl per well). […] The number of colonies on each plated were counted and an average CFU/mL was determined for treated and untreated samples. […]
substance,measurement,setting,value
"TVGGLVKWILKTVKKFA-NH2 [STIP3-29, TVGGLVKWILKTVKKFA-NH2]","IC50, HeLa cell survival",[1],56 ± 1 µg/mL
same,MIC (μg/mL) Kodamae ohmeri AR 396,[2],50 µg/mL
same,MIC (μg/mL) Candida lusitaniae AR 398,[3],25 µg/mL
same,MIC (μg/mL) Saccharomyces cerevisiae AR 399,[4],50 µg/mL
same,MIC (μg/mL) Candida duobushaemulonii AR 392,[5],50 µg/mL
same,MIC (μg/mL) Candida krusei AR 397,[6],50 µg/mL
same,MIC (μg/mL) Candida haemulonii AR 393,[7],200 µg/mL
same,MIC (μg/mL) Candida duobushaemulonii AR 394,[8],100 µg/mL
same,MIC (μg/mL) Candida duobushaemulonii AR 391,[9],25 µg/mL
same,MIC (μg/mL) Saccharomyces cerevisiae AR 400,[10],25 µg/mL
same,SYTOX entry,[11],SYTOX was slow to enter
same,control of MRSA population on 3D epidermal tissue,"[12]; 25 μg/ml after colonization, 16 h",prevented the expansion of the MRSA population
same,average bacterial density,"[12]; tissues treated with 25 μg/mL (n=6), infected at 7×10^3 CFU/mL, untreated 9×10^7 CFU/mL",6×10^3 CFU/mL
